For this series, the system named is CCRIS mutagenicity, Ames/micronucleus/aberration tests. The series is described as follows: CCRIS mutagenicity studies.
[1] abbreviates: Test System: AMES SALMONELLA TYPHIMURIUM, Strain/Indicator: TA98, Metabolic Activation: NONE, Method: STANDARD PLATE.
Where [2] appears, read: Test System: AMES SALMONELLA TYPHIMURIUM, Strain/Indicator: TA98, Metabolic Activation: RAT, LIVER, S-9, AROCLOR 1254, Method: STANDARD PLATE.
Setting [3] is: Test System: AMES SALMONELLA TYPHIMURIUM, Strain/Indicator: TA100, Metabolic Activation: NONE, Method: STANDARD PLATE.
The mark [4] stands for this setting: Test System: AMES SALMONELLA TYPHIMURIUM, Strain/Indicator: TA100, Metabolic Activation: RAT, LIVER, S-9, AROCLOR 1254, Method: STANDARD PLATE.
Setting [5] is: Test System: MOUSE LYMPHOMA, Strain/Indicator: L5178Y (TK+/TK-), Metabolic Activation: NONE, Method: SUSPENSION/PLATE.
Where [6] appears, read: Test System: AMES SALMONELLA TYPHIMURIUM, Strain/Indicator: TA98, Metabolic Activation: HAMSTER, LIVER, S-9, AROCLOR 1254 (10%), Method: PREINCUBATION
Where [7] appears, read: Test System: AMES SALMONELLA TYPHIMURIUM, Strain/Indicator: TA98, Metabolic Activation: NONE, Method: PREINCUBATION
Where [8] appears, read: Test System: AMES SALMONELLA TYPHIMURIUM, Strain/Indicator: TA98, Metabolic Activation: RAT, LIVER, S-9, AROCLOR 1254 (10%), Method: PREINCUBATION
The mark [9] stands for this setting: Test System: AMES SALMONELLA TYPHIMURIUM, Strain/Indicator: TA100, Metabolic Activation: HAMSTER, LIVER, S-9, AROCLOR 1254 (10%), Method: PREINCUBATION
Setting [10] is: Test System: AMES SALMONELLA TYPHIMURIUM, Strain/Indicator: TA100, Metabolic Activation: NONE, Method: PREINCUBATION
Setting [11] is: Test System: AMES SALMONELLA TYPHIMURIUM, Strain/Indicator: TA100, Metabolic Activation: RAT, LIVER, S-9, AROCLOR 1254 (10%), Method: PREINCUBATION
Setting [12] is: Test System: AMES SALMONELLA TYPHIMURIUM, Strain/Indicator: TA1535, Metabolic Activation: HAMSTER, LIVER, S-9, AROCLOR 1254 (10%), Method: PREINCUBATION
The mark [13] stands for this setting: Test System: AMES SALMONELLA TYPHIMURIUM, Strain/Indicator: TA1535, Metabolic Activation: NONE, Method: PREINCUBATION
The mark [14] stands for this setting: Test System: AMES SALMONELLA TYPHIMURIUM, Strain/Indicator: TA1535, Metabolic Activation: RAT, LIVER, S-9, AROCLOR 1254 (10%), Method: PREINCUBATION

Structures are written as SMILES. Activity calls are given as the source filed them. No rule for the calls is given here.

With `Cc1ccc2nc(-c3ccc(N)cc3)sc2c1`, the mutagenic call is, setting by setting: (Test System: AMES SALMONELLA TYPHIMURIUM, Strain/Indicator: 1537, Metabolic Activation: NONE, Method: STANDARD PLATE) “inactive; negative”; (Test System: AMES SALMONELLA TYPHIMURIUM, Strain/Indicator: TA98, Metabolic Activation: HAMSTER, LIVER, S-9, AROCLOR 1254, Method: STANDARD PLATE) “active; positive”; under setting [1], “inactive; negative”; under setting [2], “active; positive”; (Test System: AMES SALMONELLA TYPHIMURIUM, Strain/Indicator: TA100, Metabolic Activation: HAMSTER, LIVER, S-9, AROCLOR 1254, Method: STANDARD PLATE) “active; positive”; under setting [3], “inactive; negative”. The mutagenic call under setting [4] was “active; positive”; the mutagenic call (Test System: AMES SALMONELLA TYPHIMURIUM, Strain/Indicator: TA1535, Metabolic Activation: HAMSTER, LIVER, S-9, AROCLOR 1254, Method: STANDARD PLATE) is “inactive; negative”; the mutagenic call (Test System: AMES SALMONELLA TYPHIMURIUM, Strain/Indicator: TA1535, Metabolic Activation: RAT, LIVER, S-9, AROCLOR 1254, Method: STANDARD PLATE) is “inactive; negative”; the mutagenic call (Test System: AMES SALMONELLA TYPHIMURIUM, Strain/Indicator: TA1537, Metabolic Activation: HAMSTER, LIVER, S-9, AROCLOR 1254, Method: STANDARD PLATE) was “active; positive”; the mutagenic call (Test System: AMES SALMONELLA TYPHIMURIUM, Strain/Indicator: TA1537, Metabolic Activation: RAT, LIVER, S-9, AROCLOR 1254, Method: STANDARD PLATE) is “active; positive”; the mutagenic call (Test System: AMES SALMONELLA TYPHIMURIUM, Strain/Indicator: TA1538, Metabolic Activation: HAMSTER, LIVER, S-9, AROCLOR 1254, Method: STANDARD PLATE) was “active; positive”. The mutagenic call is, setting by setting: (Test System: AMES SALMONELLA TYPHIMURIUM, Strain/Indicator: TA1538, Metabolic Activation: NONE, Method: STANDARD PLATE) “inactive; negative”; (Test System: AMES SALMONELLA TYPHIMURIUM, Strain/Indicator: TA1538, Metabolic Activation: RAT, LIVER, S-9, AROCLOR 1254, Method: STANDARD PLATE) “active; positive”; under setting [5], “active; positive. reevaluation of results: positive”; (Test System: MOUSE LYMPHOMA, Strain/Indicator: L5178Y (TK+/TK-), Metabolic Activation: RAT, LIVER, S-9, AROCLOR 1254, Method: SUSPENSION/PLATE) “active; positive. reevaluation of results: positive”.
In the case of `CCCCCCCCCCCOC(=O)c1ccccc1C(=O)OCCCCCCCCCCC`, the mutagenic call was “inactive; negative” under setting [6]; “inactive; negative” under setting [7]; “inactive; negative” under setting [8]; “inactive; negative” under setting [9]; “inactive; negative” under setting [10]; “inactive; negative” under setting [11]. For the same compound, the mutagenic call reads like this: under setting [12], “inactive; negative”; under setting [13], “inactive; negative”; under setting [14], “inactive; negative”; (Test System: AMES SALMONELLA TYPHIMURIUM, Strain/Indicator: TA1537, Metabolic Activation: HAMSTER, LIVER, S-9, AROCLOR 1254 (10%), Method: PREINCUBATION) “inactive; negative”; (Test System: AMES SALMONELLA TYPHIMURIUM, Strain/Indicator: TA1537, Metabolic Activation: NONE, Method: PREINCUBATION) “inactive; negative”; (Test System: AMES SALMONELLA TYPHIMURIUM, Strain/Indicator: TA1537, Metabolic Activation: RAT, LIVER, S-9, AROCLOR 1254 (10%), Method: PREINCUBATION) “inactive; negative”. The mutagenic call is, setting by setting: under setting [5], “inactive; negative”; (Test System: MOUSE LYMPHOMA, Strain/Indicator: L5178Y (TK+/TK-), Metabolic Activation: RAT LIVER S-9, Method: SUSPENSION/PLATE) “inactive; negative”.
As to `BrCc1ccc2c3c(cccc13)-c1ccccc1-2`, the mutagenic call is “active; positive” under setting [1] and “active; positive” under setting [3].
For `N.N.[Br-].[Br-].[Pt+2]`, the mutagenic call runs as follows: under setting [7], “active; positive”; under setting [10], “active; positive”.
Turning to `OCCCCl`, the mutagenic call runs as follows: (Test System: AMES SALMONELLA TYPHIMURIUM, Strain/Indicator: TA97, Metabolic Activation: HAMSTER, LIVER, S-9, AROCLOR 1254 (10%), Method: PREINCUBATION) “inactive; negative”; (Test System: AMES SALMONELLA TYPHIMURIUM, Strain/Indicator: TA97, Metabolic Activation: NONE, Method: PREINCUBATION) “inactive; negative”; (Test System: AMES SALMONELLA TYPHIMURIUM, Strain/Indicator: TA97, Metabolic Activation: RAT, LIVER, S-9, AROCLOR 1254 (10%), Method: PREINCUBATION) “inactive; negative”; under setting [6], “inactive; negative”; under setting [7], “inactive; negative”; under setting [8], “inactive; negative”. The mutagenic call was “inactive; negative” under setting [9]; “inactive; negative” under setting [10]; “inactive; negative” under setting [11]; “active; positive” under setting [12]; “inactive; negative” under setting [13]; “active; positive” under setting [14].
For `Cc1nc2c(ccc3ccc4ccc(O)cc4c32)[nH]1`, the mutagenic call is “active; positive” under setting [2] and “active; positive” (Test System: AMES SALMONELLA TYPHIMURIUM, Strain/Indicator: TA98, Metabolic Activation: RAT, LIVER, S-9, AROCLOR, Method: STANDARD PLATE).
For the compound `CC1CS(=O)(=O)CCN1/N=C/c1ccc([N+](=O)[O-])o1` (stereo not drawn), the mutagenic call (Test System: AMES SALMONELLA TYPHIMURIUM, Strain/Indicator: TA97, Metabolic Activation: NONE, Method: STANDARD PLATE) was “active; positive”; the mutagenic call under setting [1] is “inactive; negative”; the mutagenic call under setting [3] was “active; positive”; the mutagenic call under setting [4] was “active; positive”; the mutagenic call (Test System: AMES SALMONELLA TYPHIMURIUM, Strain/Indicator: TA102, Metabolic Activation: NONE, Method: STANDARD PLATE) was “active; positive”.
With `Nc1ccc(Oc2ccc(N)c(Cl)c2)cc1Cl`, the mutagenic call is, setting by setting: under setting [7], “inactive; negative”; (Test System: AMES SALMONELLA TYPHIMURIUM, Strain/Indicator: TA98, Metabolic Activation: RAT, LIVER, S-9, PCB, Method: PREINCUBATION) “active; positive”; under setting [10], “inactive; negative”; (Test System: AMES SALMONELLA TYPHIMURIUM, Strain/Indicator: TA100, Metabolic Activation: RAT, LIVER, S-9, PCB, Method: PREINCUBATION) “active; positive”.
`c1ccc2c(c1)CC[C@@H]1CCCC[C@@H]21`: the mutagenic call was “inactive; negative” (Test System: AMES SALMONELLA TYPHIMURIUM, Strain/Indicator: TA98, Metabolic Activation: RAT, LIVER, S-9, SODIUM PHENOBARBITAL AND BETA-NAPHTHOFLAVONE, Method: STANDARD PLATE) and “inactive; negative” (Test System: AMES SALMONELLA TYPHIMURIUM, Strain/Indicator: TA100, Metabolic Activation: RAT, LIVER, S-9, SODIUM PHEOBARBITAL AND BETA-NAPHTHOFLAVONE, Method: STANDARD PLATE).
`CCC12OC1(C(=O)OC)C(=O)NC2(C)O` (stereo not drawn): the mutagenic call (Test System: AMES SALMONELLA TYPHIMURIUM, Strain/Indicator: TA98, Metabolic Activation: NONE, Method: DISK ASSAY) was “inactive; negative”; the mutagenic call under setting [1] is “inactive; negative”; the mutagenic call (Test System: AMES SALMONELLA TYPHIMURIUM, Strain/Indicator: TA98, Metabolic Activation: RAT, LIVER, S-9, AROCLOR 1254, Method: DISK ASSAY) was “inactive; negative”; the mutagenic call under setting [2] is “active; positive”.

The values above are taken from PubChem BioAssay AID1259407 (Chemical Carcinogenesis Research Information System (CCRIS), 2018).
